One molecule from US12384771B2, “Pleuromutilin derivative containing thiazole-pyridine benzyl quaternary ammonium salt side chain and preparation method and use thereof” (SHAANXI UNIVERSITY OF SCIENCE AND TECHNOLOGY, priority 2022, dated 2025) can be followed below.

Counter-ions that a name gives are not always drawn.

What all share (assay): MIC, clinical drug-resistant bacteria
What all share (assay type): cell-based

The subject of test [1] is carbapenem-resistant Acinetobacter baumannii (CR-AB) 18-882. Conditions: CR-AB 18-882, read-out: Minimum inhibitory concentration against clinical drug-resistant bacteria. In short, it runs like this:
(§1)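 Broth microdilution MIC against clinical drug-resistant isolates from Huashan Hospital, Fudan University. Moxifloxacin served as positive control; retapamulin, tiamulin and valnemulin were tested alongside as marketed pleuromutilin comparators.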

Test [2] deals with carbapenem-resistant Acinetobacter baumannii (CR-AB) 18-184. Particulars: CR-AB 18-184, read-out: Minimum inhibitory concentration against clinical drug-resistant bacteria. In short, it runs like this:
as §1

For test [3], the system named is methicillin-resistant Staphylococcus aureus (MRSA) 18-209. Conditions: MRSA 18-209, read-out: Minimum inhibitory concentration against clinical drug-resistant bacteria. In short, it runs like this: as §1
The test system of test [4] is methicillin-resistant Staphylococcus aureus (MRSA) 18-171. Conditions: MRSA 18-171, read-out: Minimum inhibitory concentration against clinical drug-resistant bacteria. In short, it runs like this: as §1

On to `C=C[C@]1(C)C[C@@H](OC(=O)CSc2nc(-c3cc[n+](Cc4ccc([N+](=O)[O-])cc4)cc3)cs2)[C@]2(C)[C@H](C)CC[C@]3(CCC(=O)[C@H]32)[C@@H](C)[C@@H]1O` [Compound 7, 1-(4-(nitro)benzyl)-4-(2-(8-hydroxy-4,7,9,12-tetramethyl-3-oxo-7-vinyldecahydro-4,9a-propancyclopent[8]cyclen-5-yl)oxy)-2-oxoethyl)thiazol-4-yl)pyridyl bromide salt], for which the MIC in test [1] is 16 µg/mL; in test [2], 32 µg/mL; in test [3], 16 µg/mL; in test [4], 64 µg/mL.
